{"source": "patent US8999393B1", "about": "“Sustained release formulations of lorazepam” (Edgemont Pharmaceuticals LLC, priority 2013, dated 2015)", "origin": "cited, not measured here", "key": {"[1]": {"details": "according to the package insert"}}}
{"smiles": "O=C1Nc2ccc(Cl)cc2C(c2ccccc2Cl)=NC1O", "note": "(racemic) [lorazepam, ±7-chloro-5-(2-chlorophenyl)-1,3-dihydro-3-hydroxy-2H-1,4-benzodiazepin-2-one]", "values": [{"measurement": "solubility in water", "result": "almost insoluble"}, {"measurement": "half-life in human plasma", "setting": "[1]", "result": "about 12 hours"}]}
